The record followed here is patent EP0476853B1, “Triphenodioxazine dyes” (ZENECA LIMITED, priority 1990, dated 1992).

The data set is described as follows: Solubility of the dyebase in aqueous acid solvent systems. Type of data set: physicochemical. How it is done:
The solubility of the product from step (a) was then determined in the following aqueous solvent systems.

Take `NCCNc1ccc2c(c1)Oc1c(Cl)c3c(c(Cl)c1=N2)Oc1cc(NCCN)ccc1N=3` [Formula (3)]: the “Solubility (% w/w)” value (solvent: 25% formic acid (aqueous)) was 5.3 % w/w; the “Solubility (% w/w)” value (solvent: 25% lactic acid (aqueous)) was determined as 4.8 % w/w; the “Solubility (% w/w)” value (solvent: 50% formic acid (aqueous)) came out at 7.5 % w/w; the “Solubility (% w/w)” value (solvent: 50% lactic acid (aqueous)) was found to be 4.9 % w/w; the “Solubility (% w/w)” value (solvent: 85% formic acid (aqueous)) is given as 24.7 % w/w; the “Solubility (% w/w)” value (solvent: 88% lactic acid (aqueous)) is 4.8 % w/w. This compound also registered a solubility (solvent: 50% aqueous acetic acid (comparison)) of 2.52 % w/w.
